Results reported in article PMC10766964, “Copper-catalyzed synthesis of pyrazolo[1,5-a]pyrimidine based triazole-linked glycohybrids: mechanistic insights and bio-applications” (Scientific Reports, 2024).

Assays:
[1] = system: MCF-7 (hormone receptor/HR-positive breast cancer cells); assay: MTT cell viability assay in MCF-7 cells; type: cell-based; conditions: Homo sapiens, MCF7, 72 h, concentrations 10 µM, 25 µM and 50 μM in Fig. 10, read-out: IC50 against MCF-7 breast cancer cells line
[2] = system: MDA-MB-453 (HER2 positive breast cancer cells); assay: MTT cell viability assay in MDA-MB-453 cells; type: cell-based, human; conditions: for viability at 1 µM / viability at 10 µM / viability at 25 µM: Homo sapiens, read-out: Cell viability (%) ± SD; for viability at 1 µM: MDA-MB-453, 1 µM; for viability at 10 µM: MDA-MB-453, 10 µM; for viability at 25 µM: MDA-MB-453, 25 µM; for IC50 value against MDA-MB-453 cells (in words): tested at 1 µM, 10 µM and 25 µM
Experimental: MDA-MB-231 represents a specific subtype known as triple-negative breast cancer (TNBC). The investigation study was extended with active six hit compounds (9a, 9d, 9h, 10d, 10f, and 11g) in two other different cancer cell lines (MCF-7 and MDA-MB-453), each representing a separate class of breast cancers (MCF-7: hormone receptor/HR-positive; MDA-MB-453: human epidermal growth factor 2 receptor/HER2 positive). […] We also included normal mammary epithelial MCF-10A cells in our experiments to confirm if the growth-inhibitory activities of the selected compounds are truly cancer cell-specific. The activity data from MCF-7 and MDA-MB-453 cell lines (tested at 1 µM, 10 µM and 25 µM) and activity data from MCF-10A cell line (tested at 25 µM, 50 µM and 100 µM) are summarized in Table 3. To evaluate cell viability, the MTT assay was conducted following standard procedures. After 72 h of cell incubation with or without each compound, cell viability was assessed using MTT (3-(4,5-dimethylthiazol-2-yl)-2,5-diphenyltetrazolium bromide), which is a colorimetric method for determining the number of viable cells in various assays including proliferation, cytotoxicity, or chemosensitivity. The MTT reagent was added to the cells after removal of the medium and incubated for 3 h at 37 °C in the CO2 incubator. The formazan product, which is […] in the tissue culture medium, was dissolved in DMSO, and the absorbance of the formazan product was directly measured at 595 nm using a multimode plate reader without additional processing. The absorbance values are directly proportional to the number of viable cells in culture. The percentage of viable cells in each group was determined relative to the untreated control cells.

[3] = system: MCF-7 (hormone receptor/HR-positive breast cancer cells); assay: MTT cell viability assay in MCF-7 cells; type: cell-based; conditions: Homo sapiens, MCF7, read-out: Cell viability (%) ± SD; for viability at 1 µM: MCF-7, 1 µM; for viability at 10 µM: MCF-7, 10 µM; for viability at 25 µM: MCF-7, 25 µM
Experimental: MDA-MB-231 represents a specific subtype known as triple-negative breast cancer (TNBC). The investigation study was extended with active six hit compounds (9a, 9d, 9h, 10d, 10f, and 11g) in two other different cancer cell lines (MCF-7 and MDA-MB-453), each representing a separate class of breast cancers (MCF-7: hormone receptor/HR-positive; MDA-MB-453: human epidermal growth factor 2 receptor/HER2 positive).
We also included normal mammary epithelial MCF-10A cells in our experiments to confirm if the growth-inhibitory activities of the selected compounds are truly cancer cell-specific. The activity data from MCF-7 and MDA-MB-453 cell lines (tested at 1 µM, 10 µM and 25 µM) and activity data from MCF-10A cell line (tested at 25 µM, 50 µM and 100 µM) are summarized in Table 3.
To evaluate cell viability, the MTT assay was conducted following standard procedures. After 72 h of cell incubation with or without each compound, cell viability was assessed using MTT (3-(4,5-dimethylthiazol-2-yl)-2,5-diphenyltetrazolium bromide), which is a colorimetric method for determining the number of viable cells in various assays including proliferation, cytotoxicity, or chemosensitivity. The MTT reagent was added to the cells after removal of the medium and incubated for 3 h at 37 °C in the CO2 incubator. The formazan product, which is […] in the tissue culture medium, was dissolved in DMSO, and the absorbance of the formazan product was directly measured at 595 nm using a multimode plate reader without additional processing. The absorbance values are directly proportional to the number of viable cells in culture. The percentage of viable cells in each group was determined relative to the untreated control cells.

[4] = system: MDA-MB-231 (human breast cancer) cell line; assay: MTT cell viability assay in MDA-MB-231 cells; type: cell-based; conditions: for inhibition at 25 µM: MDA-MB-231, 25 μM concentration; for IC50: MDA-MB-231, MTT, concentrations 10, 25 and 50 µM, n = 3, read-out: IC50 against MDA-MB-231 breast cancer cell line; for IC50 / viability at 10 µM / viability at 25 µM / viability at 50 µM: 72 h; for viability at 10 µM / viability at 25 µM / viability at 50 µM: Table 2, MDA-MB-231, MTT, read-out: Cell viability (%) ± SD
Outline: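 MDA-MB-231 cells in DMEM/10% FBS, used before passage 8, exposed to compounds at several concentrations for 72 h at 37 °C. MTT added for 3 h; formazan dissolved in DMSO and read at 595 nm. Viability expressed as percent of untreated control.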

| SMILES | IC50 [1] | viability at 1 µM [2] | viability at 10 µM [2] | viability at 25 µM [2] | IC50 value against MDA-MB-453 cells (in words) [2] | viability at 1 µM [3] | viability at 10 µM [3] | viability at 25 µM [3] | inhibition at 25 µM [4] | IC50 [4] | viability at 10 µM [4] | viability at 25 µM [4] | viability at 50 µM [4] |
| --- | --- | --- | --- | --- | --- | --- | --- | --- | --- | --- | --- | --- | --- |
| CC(=O)OC[C@H]1O[C@@H](n2cc(COc3cc(-c4ccc(C)cc4)nc4ccnn34)nn2)[C@H](OC(C)=O)[C@@H](OC(C)=O)[C@@H]1OC(C)=O [Compound 9a, (2R,3R,4S,5R,6R)-2-(acetoxymethyl)-6-(4-(((5-(p-tolyl)pyrazolo[1,5-a]pyrimidin-7-yl)oxy)methyl)-1H-1,2,3-triazol-1-yl)tetrahydro-2H-pyran-3,4,5-triyl triacetate] | 35.4 µM | 80.6 ± 8% | 86.4 ± 5.4% | 78.1 ± 5.7% | did not reach up to IC50 value | 68.7 ± 1.18% | 41.3 ± 3.6% | 21.7 ± 4% | ~50% | 29.6 µM | 70.1 ± 9.53% | 51 ± 9.19% | 35.3 ± 4.29% |
| CC(=O)OC[C@H]1O[C@@H](n2cc(COc3cc(-c4ccc(Cl)cc4)nc4ccnn34)nn2)[C@H](OC(C)=O)[C@@H](OC(C)=O)[C@@H]1OC(C)=O [Compound 9d, (2R,3R,4S,5R,6R)-2-(acetoxymethyl)-6-(4-(((5-(4-chlorophenyl)pyrazolo[1,5-a]pyrimidin-7-yl)oxy)methyl)-1H-1,2,3-triazol-1-yl)tetrahydro-2H-pyran-3,4,5-triyl triacetate] | 15.3 µM | 80.8 ± 3.2% | 82.2 ± 11.5% | 65.3 ± 5.8% | did not reach up to IC50 value | 100 ± 4.5% | 69.8 ± 1.8% | 62.8 ± 3% | ~50% | 43.1 µM | 75.6 ± 9.76% | 61 ± 8.47% | 58.6 ± 5.61% |
| CC(=O)OC[C@H]1O[C@@H](n2cc(COc3cc(-c4ccc5ccccc5c4)nc4ccnn34)nn2)[C@H](OC(C)=O)[C@@H](OC(C)=O)[C@@H]1OC(C)=O [Compound 9h, (2R,3R,4S,5R,6R)-2-(acetoxymethyl)-6-(4-(((5-(naphthalen-2-yl)pyrazolo[1,5-a]pyrimidin-7-yl)oxy)methyl)-1H-1,2,3-triazol-1-yl)tetrahydro-2H-pyran-3,4,5-triyl triacetate] | 21.1 µM | 105 ± 8.1% | 74.8 ± 1.5% | 66.4 ± 3.2% | did not reach up to IC50 value | 79.2 ± 2.6% | 58.7 ± 2.4% | 42.3 ± 7.6% | ~50% | 35.9 µM | 96.6 ± 3.36% | 55.2 ± 7.06% | 42.8 ± 5.04% |
| CC(=O)OC[C@H]1O[C@@H](n2cc(COc3cc(-c4ccc(Cl)cc4)nc4ccnn34)nn2)[C@H](OC(C)=O)[C@@H](OC(C)=O)[C@H]1OC(C)=O [Compound 10d, (2R,3S,4S,5R,6R)-2-(acetoxymethyl)-6-(4-(((5-(4-chlorophenyl)pyrazolo[1,5-a]pyrimidin-7-yl)oxy)methyl)-1H-1,2,3-triazol-1-yl)tetrahydro-2H-pyran-3,4,5-triyl triacetate] | 40.1 µM | 88.8 ± 5.2% | 78.3 ± 4.7% | 69.6 ± 5.3% | did not reach up to IC50 value | 66 ± 4.7% | 34 ± 2.5% | 20 ± 2.9% | ~50% | 29.1 µM | 56.7 ± 8.23% | 53.3 ± 6.32% | 41 ± 4.91% |
| CC(=O)OC[C@H]1O[C@@H](n2cc(COc3cc(-c4ccc(C(F)(F)F)cc4)nc4ccnn34)nn2)[C@H](OC(C)=O)[C@@H](OC(C)=O)[C@H]1OC(C)=O [Compound 10f, (2R,3S,4S,5R,6R)-2-(acetoxymethyl)-6-(4-(((5-(4-(trifluoromethyl)phenyl)pyrazolo[1,5-a]pyrimidin-7-yl)oxy)methyl)-1H-1,2,3-triazol-1-yl)tetrahydro-2H-pyran-3,4,5-triyl triacetate] | 42.1 µM | 92.5 ± 4.6% | 80.9 ± 1.2% | 66.8 ± 1.7% | did not reach up to IC50 value | 51.3 ± 3.1% | 28.4 ± 0.9% | 21.1 ± 4.4% | ~50% | 31.2 µM | 69.4 ± 5.36% | 45.1 ± 3.32% | 41.2 ± 1.26% |
| CC(=O)OC[C@H]1O[C@H](n2cc(COc3cc(-c4ccc(C(C)C)cc4)nc4ccnn34)nn2)[C@@H](OC(C)=O)[C@@H](OC(C)=O)[C@@H]1OC(C)=O [Compound 11g, (2R,3R,4S,5S,6S)-2-(acetoxymethyl)-6-(4-(((5-(4-isopropylphenyl)pyrazolo[1,5-a]pyrimidin-7-yl)oxy)methyl)-1H-1,2,3-triazol-1-yl)tetrahydro-2H-pyran-3,4,5-triyl triacetate] | 18.3 µM | 95.4 ± 4.8% | 76.4 ± 5.4% | 96.1 ± 35.7% | did not reach up to IC50 value | 70.8 ± 4.2% | 68.2 ± 3.8% | 49.1 ± 3.5% | ~50% | 38.8 µM | 66.7 ± 8.21% | 54.3 ± 6.12% | 45.3 ± 4.11% |
